Substitutions are numbered along the chain they refer to. Where no end group is shown, it is not given here.

Experiment in all cases: Homologous whole cell competition binding
Common to all, as to conditions: homologous competition of 125I-sCT(8-32), whole cells, mean ± S.E.M., SEM

Experiment [1] deals with T1, hCTR F359A (Homo sapiens, UniProt P30988, F359A).
T1 construct: expressed in transfected cells
T1 sequence (P30988 25-474 F359A): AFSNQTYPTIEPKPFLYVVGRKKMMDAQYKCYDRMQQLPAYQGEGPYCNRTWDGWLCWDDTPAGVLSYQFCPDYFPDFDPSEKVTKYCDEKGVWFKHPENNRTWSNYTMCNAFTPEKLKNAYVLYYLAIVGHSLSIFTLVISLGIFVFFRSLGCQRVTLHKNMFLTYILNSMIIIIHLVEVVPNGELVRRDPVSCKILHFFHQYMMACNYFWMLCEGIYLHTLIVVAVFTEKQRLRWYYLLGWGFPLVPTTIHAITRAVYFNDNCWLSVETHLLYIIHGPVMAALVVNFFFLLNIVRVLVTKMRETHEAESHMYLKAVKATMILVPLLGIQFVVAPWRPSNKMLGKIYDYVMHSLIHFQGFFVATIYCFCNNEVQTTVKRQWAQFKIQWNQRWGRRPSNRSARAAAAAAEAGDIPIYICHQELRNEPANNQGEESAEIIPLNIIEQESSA
The procedure, abridged: (§1)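 Whole cells expressing the mutant receptor were incubated overnight at 4 °C with ^125I-sCT(8-32) (25–100 pM, two concentrations) and serial dilutions of unlabelled sCT(8-32). Bound radioactivity was gamma-counted; nonspecific binding was defined with 1 μM sCT(8-32). IC50 was fitted by 3-parameter logistic and Cheng-Prusoff-corrected to pKi.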

The target in experiment [2] is T2, hCTR V283A (Homo sapiens, UniProt P30988, V283A).
T2 construct: expressed in transfected cells
T2 sequence (P30988 25-474 V283A): T1 sequence (P30988 25-474 F359A) with V259A, A335F
Summed up: as §1

Experiment [3] concerns the target T3, hCTR F285A (Homo sapiens, UniProt P30988, F285A).
T3 construct: expressed in transfected cells
T3 sequence (P30988 25-474 F285A): T1 sequence (P30988 25-474 F359A) with F261A, A335F
Summed up:
as §1

Experiment [4] concerns the target T4, hCTR S364A (Homo sapiens, UniProt P30988, S364A).
T4 construct: c-Myc (N); expressed in transfected cells
T4 sequence (P30988 25-474 S364A): T1 sequence (P30988 25-474 F359A) with A335F, S340A
The procedure, abridged: as §1

In the case of “VLGKLSQELHKLQTYPRTNTGSGTP-NH2 [sCT(8-32)]”, the Ki in experiment [1] is 0.219 nM; in experiment [2] it was 0.214 nM; in experiment [3], 0.102 nM; in experiment [4], 0.191 nM.

These data come from PMC5908784, “Extracellular loops 2 and 3 of the calcitonin receptor selectively modify agonist binding and efficacy” (Biochemical Pharmacology, 2018).
